Columns and labels:
in vitro = experiment: in vitro
Method in brief: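 Cytoprotection read-out: CellTiter-Glo chemiluminescence after 5 days at 37 °C of HIV-IIIb-infected MT-4 cells (m.o.i. 0.003) with compound in 10-point 3-fold dilutions, quadruplicate, 10% FBS. Cytotoxicity (CC50) measured identically without virus.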

HIV-IIIb = experiment: Test A: Antiviral assay in MT4 cells; assay type: cell-based, HIV-1; settings: Human immunodeficiency virus 1, IIIB, MT4, 120 h, read-out: % inhibition at 2 μM, percent inhibition of virus-induced cell killing, from dose response curve at 2 uM drug; MT-4 cells infected with HIV-IIIb, 5 days, CellTiter-Glo
[1] = human, uninfected MT-4 cells, CC50 (nM), same protocol as Test A, CellTiter-Glo

| Compound | CC50 at 5 days (in vitro; [1]) | inhibition at 2 µM (HIV-IIIb) | CC50 at 5 days (in vitro; human, CC50 (nM), uninfected MT-4 cells, same protocol as Test A, CellTiter-Glo) |
| --- | --- | --- | --- |
| O=C(Cn1nc(C(F)(F)F)c2c1CCCC2)N[C@@H](Cc1cc(F)cc(F)c1)c1ncncc1-c1ccc(Cl)cc1 [Example 351, (S)—N-(1-(5-(4-chlorophenyl)pyrimidin-4-yl)-2-(3,5-difluorophenyl)ethyl)-2-(3-(trifluoromethyl)-4,5,6,7-tetrahydro-1H-indazol-1-yl)acetamide] | 8600 nM | 95% |  |
| Cc1ccccc1-c1cccnc1[C@@H](Cc1ccccc1)NC(=O)Cn1nc(C(F)(F)F)c2c1CCCC2 [Example 16, (R)—N-(2-phenyl-1-(3-o-tolylpyridin-2-yl)ethyl)-2-(3-(trifluoromethyl)-4,5,6,7-tetrahydro-1H-indazol-1-yl)acetamide] | 14000 nM | 0% |  |
| NC(=O)c1cc(-c2cccnc2[C@H](Cc2cc(F)cc(F)c2)NC(=O)[C@@H]2CC(=O)CN2)ccc1F [Example 167, (S)—N—((S)-1-(3-(3-carbamoyl-4-fluorophenyl)pyridin-2-yl)-2-(3,5-difluorophenyl)ethyl)-4-oxopyrrolidine-2-carboxamide] | > 53000 nM | 0% |  |
| NC(=O)c1cc(-c2cccnc2[C@H](Cc2cc(F)cc(F)c2)NC(=O)Cn2nc(C(F)(F)F)c3c2CCCC3=O)ccc1F [Example 79F, (S)-5-(2-(2-(3,5-difluorophenyl)-1-(2-(4-oxo-3-(trifluoromethyl)-4,5,6,7-tetrahydro-1H-indazol-1-yl)acetamido)ethyl)pyridin-3-yl)-2-fluorobenzamide] | > 50600 nM | 19% |  |
| COc1cc(C)c(-c2cccnc2C(Cc2cc(F)cc(F)c2)NC(=O)Cn2nc(C(F)(F)F)c3c2CCCC3)c(C)c1 (stereo not drawn) [Example 8, N-(2-(3,5-difluorophenyl)-1-(3-(4-methoxy-2,6-dimethylphenyl)pyridin-2-yl)ethyl)-2-(3-(trifluoromethyl)-4,5,6,7-tetrahydro-1H-indazol-1-yl)acetamide] | 15700 nM | 20% |  |
| O=C(Cn1nc(C(F)F)c2c1C(F)(F)C1CC21)N[C@@H](Cc1cc(F)cc(F)c1)c1ncncc1-c1cnc2[nH]ccc2c1 (stereo partly drawn) [Example 172D, N—((S)-1-(5-(1H-pyrrolo[2,3-b]pyridin-5-yl)pyrimidin-4-yl)-2-(3,5-difluorophenyl)ethyl)-2-(3-(difluoromethyl)-5,5-difluoro-3b,4,4a,5-tetrahydro-1H-cyclopropa[3,4]cyclopenta[1,2-c]pyrazol-1-yl)acetamide] | 22100 nM | 104% |  |
| O=C(Cn1nc(C(F)F)c2c1C(F)(F)C1CC21)N[C@@H](Cc1cc(F)cc(F)c1)c1ncncc1-c1ccc2cccnc2c1 (stereo partly drawn) [Example 124C, 2-(3-(difluoromethyl)-5,5-difluoro-3b,4,4a,5-tetrahydro-1H-cyclopropa[3,4]cyclopenta[1,2-c]pyrazol-1-yl)-N—((S)-2-(3,5-difluorophenyl)-1-(5-(quinolin-7-yl)pyrimidin-4-yl)ethyl)acetamide] | 20200 nM | 77% |  |
| NC(=O)c1cc(-c2cccnc2[C@H](Cc2cc(F)cc(F)c2)NC(=O)Cn2nc(C(F)(F)F)cc2C2CCCC2)ccc1F [Example 168B, (S)-5-(2-(1-(2-(5-cyclopentyl-3-(trifluoromethyl)-1H-pyrazol-1-yl)acetamido)-2-(3,5-difluorophenyl)ethyl)pyridin-3-yl)-2-fluorobenzamide] | 11100 nM | 21% |  |
| Cc1cccc2[nH]cc(CC(=O)N[C@@H](Cc3cc(F)cc(F)c3)c3ncccc3-c3cccc(C(N)=O)c3)c12 [Example 481, (S)-3-(2-(2-(3,5-difluorophenyl)-1-(2-(4-methyl-1H-indol-3-yl)acetamido)ethyl)pyridin-3-yl)benzamide] | 22900 nM | 53% |  |
| COC1CN(C(=O)Cc2c(C)n(CC(=O)N[C@@H](Cc3cc(F)cc(F)c3)c3ncccc3-c3ccc(F)c(C(N)=O)c3)c3ccccc23)C1 [Example 579D, (S)-5-(2-(2-(3,5-difluorophenyl)-1-(2-(3-(2-(3-methoxyazetidin-1-yl)-2-oxoethyl)-2-methyl-1H-indol-1-yl)acetamido)ethyl)pyridin-3-yl)-2-fluorobenzamide] | > 53200 nM | 18% |  |
| O=C(Cc1c[nH]c2ccc(C(F)(F)F)cc12)N[C@@H](Cc1cc(F)cc(F)c1)c1ncccc1-c1ccc(Cl)cc1 [Example 513, (S)—N-(1-(3-(4-chlorophenyl)pyridin-2-yl)-2-(3,5-difluorophenyl)ethyl)-2-(5-(trifluoromethyl)-1H-indol-3-yl)acetamide] | 10700 nM | 63% |  |
| O=C(Cn1nc(C(F)(F)F)c2c1CCCC2)N[C@@H](Cc1cc(F)cc(F)c1)c1ncccc1-c1ccc(N2CCCC2)nc1 [Example 432, (S)—N-(2-(3,5-difluorophenyl)-1-(6′-(pyrrolidin-1-yl)-3,3′-bipyridin-2-yl)ethyl)-2-(3-(trifluoromethyl)-4,5,6,7-tetrahydro-1H-indazol-1-yl)acetamide] | 7990 nM | 90% |  |
| NC(=O)c1cc(-c2cccnc2[C@H](Cc2cc(F)cc(F)c2)NC(=O)Cn2ccc3ccc4ccccc4c32)ccc1F [Example 56B, (S)-5-(2-(1-(2-(1H-benzo[g]indol-1-yl)acetamido)-2-(3,5-difluorophenyl)ethyl)pyridin-3-yl)-2-fluorobenzamide] | 18900 nM | 4% |  |
| CCc1cccc2c(C(C)=O)cn(CC(=O)N[C@@H](Cc3cc(F)cc(F)c3)c3ncccc3-c3ccc(F)c(C(N)=O)c3)c12 [Example 509, (S)-5-(2-(1-(2-(3-acetyl-7-ethyl-1H-indol-1-yl)acetamido)-2-(3,5-difluorophenyl)ethyl)pyridin-3-yl)-2-fluorobenzamide] |  | 48% | 24600 nM |
| N#Cc1cc(-c2cccnc2[C@H](Cc2cc(F)cc(F)c2)NC(=O)Cc2c[nH]c3ccc(F)cc23)ccn1 [Example 377, (S)—N-(1-(2′-cyano-3,4′-bipyridin-2-yl)-2-(3,5-difluorophenyl)ethyl)-2-(5-fluoro-1H-indol-3-yl)acetamide] | 18600 nM | 22% |  |
| O=C(Cc1c[nH]c2ccc(F)cc12)N[C@@H](Cc1cc(F)cc(F)c1)c1ncccc1-c1cccnc1 [Example 439, (S)—N-(1-(3,3′-bipyridin-2-yl)-2-(3,5-difluorophenyl)ethyl)-2-(5-fluoro-1H-indol-3-yl)acetamide] | 21700 nM | -2% |  |
| NC(=O)c1cc(-c2cccnc2[C@H](Cc2cc(F)cc(F)c2)NC(=O)Cn2nc(C(F)(F)F)c3c2CCNC3=O)ccc1F [Example 270C, (S)-5-(2-(2-(3,5-difluorophenyl)-1-(2-(4-oxo-3-(trifluoromethyl)-4,5,6,7-tetrahydro-1H-pyrazolo[4,3-c]pyridin-1-yl)acetamido)ethyl)pyridin-3-yl)-2-fluorobenzamide] | > 53200 nM | 1% |  |
| CC(C)(C)OC(=O)Nc1ccc2[nH]cc(CC(=O)N[C@@H](Cc3cc(F)cc(F)c3)c3ncccc3-c3cccc(C(N)=O)c3)c2c1 [Example 496B, (S)-tert-butyl 3-(2-(1-(3-(3-carbamoylphenyl)pyridin-2-yl)-2-(3,5-difluorophenyl)ethylamino)-2-oxoethyl)-1H-indol-5-ylcarbamate] | 18400 nM | 17% |  |
| CC(C)(C)OC(=O)N1C[C@H](OCc2ccccc2)C[C@H]1C(=O)N[C@@H](Cc1cc(F)cc(F)c1)c1ncccc1-c1ccc(F)c(C(N)=O)c1 [Example 145, (2S,4R)-tert-butyl 4-(benzyloxy)-2-((S)-1-(3-(3-carbamoyl-4-fluorophenyl)pyridin-2-yl)-2-(3,5-difluorophenyl)ethylcarbamoyl)pyrrolidine-1-carboxylate] | 22400 nM | 0% |  |
| CCOc1nn(CC(=O)N[C@@H](Cc2cc(F)cc(F)c2)c2ncccc2-c2ccc(F)c(C(N)=O)c2)c2c1CCCC2 [Example 179C, (S)-5-(2-(2-(3,5-difluorophenyl)-1-(2-(3-ethoxy-4,5,6,7-tetrahydro-1H-indazol-1-yl)acetamido)ethyl)pyridin-3-yl)-2-fluorobenzamide] | 22300 nM | 52% |  |
| COc1cc(C)c(-c2cccnc2C(Cc2cc(F)cc(F)c2)NC(=O)Cc2c[nH]c3ccc(O)cc23)c(C)c1 (stereo not drawn) [Example 7, N-(2-(3,5-difluorophenyl)-1-(3-(4-methoxy-2,6-dimethylphenyl)pyridin-2-yl)ethyl)-2-(5-hydroxy-1H-indol-3-yl)acetamide] | 17600 nM | 18% |  |
| NC(=O)c1cccc(-c2cccnc2[C@H](Cc2cc(F)cc(F)c2)NC(=O)Cn2ccc3cnc(Cl)nc32)c1 [Example 266C, (S)-3-(2-(1-(2-(2-chloro-7H-pyrrolo[2,3-d]pyrimidin-7-yl)acetamido)-2-(3,5-difluorophenyl)ethyl)pyridin-3-yl)benzamide] | 51900 nM | 0% |  |
| O=C(Cn1nc(C(F)F)c2c1C(F)(F)C1CC21)N[C@@H](Cc1cc(F)cc(F)c1)c1ncccc1-c1ccc(NC(=O)NC2CC2)cc1 (stereo partly drawn) [Example 114, (S)—N-(1-(3-(4-(3-cyclopropylureido)phenyl)-pyridin-2-yl)-2-(3,5-difluorophenyl)ethyl)-2-(3-(difluoromethyl)-5,6-dihydro-4,5-(methano)-6,6-difluoro-cyclopenta[c]pyrazol-1(4H)-yl)acetamide] | > 53200 nM | 32% |  |
| COc1nc2c(CC(=O)N[C@@H](Cc3cc(F)cc(F)c3)c3ncccc3-c3cccc(C(N)=O)c3)c[nH]c2cc1C [Example 360E, (S)-3-(2-(2-(3,5-difluorophenyl)-1-(2-(5-methoxy-6-methyl-1H-pyrrolo[3,2-b]pyridin-3-yl)acetamido)ethyl)pyridin-3-yl)benzamide] | 13100 nM | 55% |  |
